{
  "source": "patent US7884136B2",
  "about": "“Modified-release formulations of a bupropion salt” (Biovail Laboratories International S.R.L., priority 2005, dated 2011)",
  "assay": "Shelf life stability program of bupropion HBr, 25° C./60% RH, 3 and 6 months, HPLC",
  "type": "physicochemical",
  "conditions": "25° C., R.H. 60%; for Chromatographic purity B) (HPLC) 4) 2-N-(tert-Butyl)-aminopropiophenone / Chromatographic purity B) (HPLC) 5) single unknown impurity (each): LOQ 0.02%, LOD 0.002%; for Chromatographic purity A) (HPLC) 1) 3′-Chloropropiophenone / Chromatographic purity A) (HPLC) 3) 3′-Chlorobenzoic acid / Chromatographic purity A) (HPLC) 2) 3′-Chloro-2-bromopropiophenone: LOQ 0.05%; for Chromatographic purity A) (HPLC) 1) 3′-Chloropropiophenone / Chromatographic purity A) (HPLC) 3) 3′-Chlorobenzoic acid: LOD 0.01%; for Chromatographic purity A) (HPLC) 2) 3′-Chloro-2-bromopropiophenone: LOD 0.04%",
  "description": "The stability of bupropion HBr was studied over a longer term under conditions meant to approximate standard storage or shelf conditions. Samples were prepared in closed containers and subjected to long-term storage at 25° C.+2° C. and 60%+5% RH in a stability chamber. The samples were analyzed by HPLC prior to being placed in the stability chamber (time 0) and after 3 months and 6 months. The amounts of the main degradation products present at time 0 were compared with the amounts present at 3 months and 6 months. As shown in Table 77-79 three different batches of bupropion HBr were tested. As in Example 10 each sample was tested under two HPLC assay conditions to identify 6 impurities or groups of impurities as described in Example 10.",
  "data": [
    {"smiles": "Br.CC(NC(C)(C)C)C(=O)c1cccc(Cl)c1", "note": "(stereo not drawn) [Bupropion•HBr]", "values": [
      {"measurement": "Assay (HPLC)", "setting": "Batch D00894, 3 months", "value": 99.4, "unit": "% on d.b."},
      {"measurement": "Chromatographic purity (HPLC: A + B) Total impurities", "setting": "Batch D00894, 3 months", "value": 0.1, "unit": "%"},
      {"measurement": "Chromatographic purity B) (HPLC) 6) total unknown impurities", "setting": "Batch D00894, 3 months", "value": "6) 0.05%"},
      {"measurement": "Description (white or almost white crystalline powder)", "setting": "Batch D00894, 3 months", "value": "conform"},
      {"measurement": "Identification IR, HPLC", "setting": "Batch D00894, 3 months", "value": "positive"},
      {"measurement": "Water content (K.F.)", "setting": "Batch D00894, 3 months", "value": 0.05, "unit": "%"},
      {"measurement": "Chromatographic purity B) (HPLC) 4) 2-N-(tert-Butyl)-aminopropiophenone", "setting": "Batch D00894, 3 months", "value": "4) 0.03%"},
      {"measurement": "Chromatographic purity B) (HPLC) 5) single unknown impurity (each)", "setting": "Batch D00894, 3 months", "value": "5) 0.04%"},
      {"measurement": "Chromatographic purity A) (HPLC) 1) 3′-Chloropropiophenone", "setting": "Batch D00894, 3 months", "value": "1) n.q."},
      {"measurement": "Chromatographic purity A) (HPLC) 3) 3′-Chlorobenzoic acid", "setting": "Batch D00894, 3 months", "value": "3) n.q."},
      {"measurement": "Chromatographic purity A) (HPLC) 2) 3′-Chloro-2-bromopropiophenone", "setting": "Batch D00894, 3 months", "value": "2) n.d."},
      {"measurement": "Assay (HPLC)", "setting": "Batch D00894, 6 months", "value": 100.2, "unit": "% on d.b."},
      {"measurement": "Chromatographic purity (HPLC: A + B) Total impurities", "setting": "Batch D00894, 6 months", "value": 0.1, "unit": "%"},
      {"measurement": "Chromatographic purity B) (HPLC) 6) total unknown impurities", "setting": "Batch D00894, 6 months", "value": "6) 0.02%"},
      {"measurement": "Description (white or almost white crystalline powder)", "setting": "Batch D00894, 6 months", "value": "conform"},
      {"measurement": "Identification IR, HPLC", "setting": "Batch D00894, 6 months", "value": "positive"},
      {"measurement": "Water content (K.F.)", "setting": "Batch D00894, 6 months", "value": 0.06, "unit": "%"},
      {"measurement": "Chromatographic purity B) (HPLC) 4) 2-N-(tert-Butyl)-aminopropiophenone", "setting": "Batch D00894, 6 months", "value": "4) 0.05%"},
      {"measurement": "Chromatographic purity B) (HPLC) 5) single unknown impurity (each)", "setting": "Batch D00894, 6 months", "value": "5) n.q."},
      {"measurement": "Chromatographic purity A) (HPLC) 1) 3′-Chloropropiophenone", "setting": "Batch D00894, 6 months", "value": "1) 0.05%"},
      {"measurement": "Chromatographic purity A) (HPLC) 3) 3′-Chlorobenzoic acid", "setting": "Batch D00894, 6 months", "value": "3) n.q."},
      {"measurement": "Chromatographic purity A) (HPLC) 2) 3′-Chloro-2-bromopropiophenone", "setting": "Batch D00894, 6 months", "value": "2) n.d."},
      {"measurement": "Assay (HPLC)", "setting": "Batch D00894, 9 months", "value": 99.5, "unit": "% on d.b."},
      {"measurement": "Chromatographic purity (HPLC: A + B) Total impurities", "setting": "Batch D00894, 9 months", "value": "n.q."},
      {"measurement": "Chromatographic purity B) (HPLC) 6) total unknown impurities", "setting": "Batch D00894, 9 months", "value": "6) n.q."},
      {"measurement": "Description (white or almost white crystalline powder)", "setting": "Batch D00894, 9 months", "value": "conform"},
      {"measurement": "Identification IR, HPLC", "setting": "Batch D00894, 9 months", "value": "positive"},
      {"measurement": "Water content (K.F.)", "setting": "Batch D00894, 9 months", "value": 0.05, "unit": "%"},
      {"measurement": "Chromatographic purity B) (HPLC) 4) 2-N-(tert-Butyl)-aminopropiophenone", "setting": "Batch D00894, 9 months", "value": "4) n.d."},
      {"measurement": "Chromatographic purity B) (HPLC) 5) single unknown impurity (each)", "setting": "Batch D00894, 9 months", "value": "5) n.q."},
      {"measurement": "Chromatographic purity A) (HPLC) 1) 3′-Chloropropiophenone", "setting": "Batch D00894, 9 months", "value": "1) n.q."},
      {"measurement": "Chromatographic purity A) (HPLC) 3) 3′-Chlorobenzoic acid", "setting": "Batch D00894, 9 months", "value": "3) n.q."},
      {"measurement": "Chromatographic purity A) (HPLC) 2) 3′-Chloro-2-bromopropiophenone", "setting": "Batch D00894, 9 months", "value": "2) n.d."},
      {"measurement": "Assay (HPLC)", "setting": "Batch D00894, 12 months", "value": 99.6, "unit": "% on d.b."},
      {"measurement": "Chromatographic purity (HPLC: A + B) Total impurities", "setting": "Batch D00894, 12 months", "value": 0.2, "unit": "%"},
      {"measurement": "Chromatographic purity B) (HPLC) 6) total unknown impurities", "setting": "Batch D00894, 12 months", "value": "6) 0.07%"},
      {"measurement": "Description (white or almost white crystalline powder)", "setting": "Batch D00894, 12 months", "value": "conform"},
      {"measurement": "Identification IR, HPLC", "setting": "Batch D00894, 12 months", "value": "positive"},
      {"measurement": "Water content (K.F.)", "setting": "Batch D00894, 12 months", "value": 0.05, "unit": "%"},
      {"measurement": "Chromatographic purity B) (HPLC) 4) 2-N-(tert-Butyl)-aminopropiophenone", "setting": "Batch D00894, 12 months", "value": "4) 0.05%"},
      {"measurement": "Chromatographic purity B) (HPLC) 5) single unknown impurity (each)", "setting": "Batch D00894, 12 months", "value": "5) 0.05%"},
      {"measurement": "Chromatographic purity A) (HPLC) 1) 3′-Chloropropiophenone", "setting": "Batch D00894, 12 months", "value": "1) n.d."},
      {"measurement": "Chromatographic purity A) (HPLC) 3) 3′-Chlorobenzoic acid", "setting": "Batch D00894, 12 months", "value": "3) 0.05%"},
      {"measurement": "Chromatographic purity A) (HPLC) 2) 3′-Chloro-2-bromopropiophenone", "setting": "Batch D00894, 12 months", "value": "2) n.d."},
      {"measurement": "Assay (HPLC)", "setting": "Batch D00894, time 0", "value": 99.6, "unit": "% on d.b."},
      {"measurement": "Chromatographic purity (HPLC: A + B) Total impurities", "setting": "Batch D00894, time 0", "value": 0.1, "unit": "%"},
      {"measurement": "Chromatographic purity B) (HPLC) 6) total unknown impurities", "setting": "Batch D00894, time 0", "value": "6) 0.04%"},
      {"measurement": "Description (white or almost white crystalline powder)", "setting": "Batch D00894, time 0", "value": "conform"},
      {"measurement": "Identification IR, HPLC", "setting": "Batch D00894, time 0", "value": "positive"},
      {"measurement": "Water content (K.F.)", "setting": "Batch D00894, time 0", "value": 0.05, "unit": "%"},
      {"measurement": "Chromatographic purity B) (HPLC) 4) 2-N-(tert-Butyl)-aminopropiophenone", "setting": "Batch D00894, time 0", "value": "4) 0.04%"},
      {"measurement": "Chromatographic purity B) (HPLC) 5) single unknown impurity (each)", "setting": "Batch D00894, time 0", "value": "5) 0.04%"},
      {"measurement": "Chromatographic purity A) (HPLC) 1) 3′-Chloropropiophenone", "setting": "Batch D00894, time 0", "value": "1) n.d."},
      {"measurement": "Chromatographic purity A) (HPLC) 3) 3′-Chlorobenzoic acid", "setting": "Batch D00894, time 0", "value": "3) n.q."},
      {"measurement": "Chromatographic purity A) (HPLC) 2) 3′-Chloro-2-bromopropiophenone", "setting": "Batch D00894, time 0", "value": "2) n.d."},
      {"measurement": "Assay (HPLC)", "setting": "Batch D00895, 3 months", "value": 99.5, "unit": "% on d.b."},
      {"measurement": "Chromatographic purity (HPLC: A + B) Total impurities", "setting": "Batch D00895, 3 months", "value": 0.1, "unit": "%"},
      {"measurement": "Chromatographic purity B) (HPLC) 6) total unknown impurities", "setting": "Batch D00895, 3 months", "value": "6) 0.05%"},
      {"measurement": "Description (white or almost white crystalline powder)", "setting": "Batch D00895, 3 months", "value": "conform"},
      {"measurement": "Identification IR, HPLC", "setting": "Batch D00895, 3 months", "value": "positive"},
      {"measurement": "Water content (K.F.)", "setting": "Batch D00895, 3 months", "value": 0.04, "unit": "%"},
      {"measurement": "Chromatographic purity B) (HPLC) 4) 2-N-(tert-Butyl)-aminopropiophenone", "setting": "Batch D00895, 3 months", "value": "4) 0.03%"},
      {"measurement": "Chromatographic purity B) (HPLC) 5) single unknown impurity (each)", "setting": "Batch D00895, 3 months", "value": "5) 0.04%"},
      {"measurement": "Chromatographic purity A) (HPLC) 1) 3′-Chloropropiophenone", "setting": "Batch D00895, 3 months", "value": "1) n.q."},
      {"measurement": "Chromatographic purity A) (HPLC) 3) 3′-Chlorobenzoic acid", "setting": "Batch D00895, 3 months", "value": "3) n.q."},
      {"measurement": "Chromatographic purity A) (HPLC) 2) 3′-Chloro-2-bromopropiophenone", "setting": "Batch D00895, 3 months", "value": "2) n.d."}
    ]}
  ]
}
